Measured values from patent US20240383954A1, “PEPTIDE INHIBITORS OF INTERLEUKIN-23 RECEPTOR AND THEIR USE TO TREAT INFLAMMATORY DISEASES” (Janssen Biotech, Inc., priority 2020, published 2024).
Starred links: 1 amine or outer side, 2 acyl side, 3 side chain; linkers in the order of their positions; H or OH if unused. Positions of bridges follow the written chain, without caps; N, C: chain ends. Non-standard residues stand in square brackets, D forms with d. Residues, ends and D or L forms follow the SMILES beside them. *: point of attachment. X3 = C[C@H](c1ccc2ccccc2c1)[C@H](N[*:1])C(=O)[*:2]; Phe(3,4-(OMe)2) = COc1ccc(C[C@H](N)C(=O)O)cc1OC; Abu(4-yl) = O=C([C@H](CC[*:3])N[*:1])[*:2]; 2Nal = N[C@@H](Cc1ccc2ccccc2c1)C(=O)O; AEF = NCCOc1ccc(C[C@H](N)C(=O)O)cc1; Cyclopropanecarbonyl = O=C(C1CC1)*; αMeF = C[C@](N)(Cc1ccccc1)C(=O)O; αMeE = C[C@](N)(CCC(=O)O)C(=O)O; Pen = CC(C)(S)[C@H](N)C(=O)O; Ac5c = NC1(C(=O)O)CCCC1; Thp = NC1(C(=O)O)CCOCC1; Hexanoyl = CCCCCC(=O)*; Pentanoyl = CCCCC(=O)*; Aib = CC(C)(N)C(=O)O; Propionyl = CCC(=O)*

Molecular target: IL-23R (Homo sapiens, UniProt Q5VWK5)
Experiment: cell-based
Conditions: PBMC pSTAT3 IC50 (nM), PBMCs from healthy donors, IL-23 5 ng/mL, 30 minutes, phosphorylated STAT3
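Note: cryopreserved PBMCs stimulated at 37 °C in 5% CO2, then lysed, with phosphorylated STAT3 quantified in lysates using a phospho-STAT panel kit.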

Sequence of IL-23R (Q5VWK5 24-629): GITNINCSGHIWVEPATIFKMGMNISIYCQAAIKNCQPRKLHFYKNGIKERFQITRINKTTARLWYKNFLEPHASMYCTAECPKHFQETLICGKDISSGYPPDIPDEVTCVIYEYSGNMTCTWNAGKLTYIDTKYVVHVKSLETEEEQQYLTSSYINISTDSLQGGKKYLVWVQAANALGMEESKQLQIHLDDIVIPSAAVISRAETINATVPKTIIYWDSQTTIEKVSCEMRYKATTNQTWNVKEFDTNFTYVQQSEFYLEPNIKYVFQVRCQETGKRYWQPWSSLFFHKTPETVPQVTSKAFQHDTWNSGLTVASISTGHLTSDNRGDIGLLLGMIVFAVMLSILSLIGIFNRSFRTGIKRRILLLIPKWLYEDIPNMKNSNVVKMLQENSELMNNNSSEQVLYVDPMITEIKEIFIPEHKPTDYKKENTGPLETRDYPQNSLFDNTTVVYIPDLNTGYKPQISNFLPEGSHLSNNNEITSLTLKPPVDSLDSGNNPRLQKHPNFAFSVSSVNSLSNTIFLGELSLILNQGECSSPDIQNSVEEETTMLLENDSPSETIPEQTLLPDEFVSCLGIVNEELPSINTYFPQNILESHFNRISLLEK

Structure (SMILES)	IC50
COc1ccc(C[C@H](NC(=O)[C@@H]2CSCC[C@H](NC(=O)[C@H](N)CCCNC(=N)N)C(=O)N[C@@H](CCC(N)=O)C(=O)N[C@@H]([C@@H](C)O)C(=O)N[C@@H](Cc3c[nH]c4ccccc34)C(=O)N[C@@H](CCC(N)=O)C(=O)N2)C(=O)N[C@@H](Cc2ccc3ccccc3c2)C(=O)NC2(C(=O)N[C@@H](CCC(=O)O)C(=O)N[C@@H](CC(N)=O)C(=O)NC3(C(N)=O)CCOCC3)CCOCC2)cc1 [Compound 22, [(D)Arg]-[Abu]-Q-T-W-Q-[Cys]-[Phe(4-OMe)]-[2-Nal]-[THP]-E-N-[THP]-NH2]	22 nM
CC(=O)N[C@H](CCCNC(=N)N)C(=O)N[C@H]1CCSC[C@@H](C(=O)N[C@@H](Cc2ccc(OCCN)cc2)C(=O)N[C@@H](Cc2ccc3ccccc3c2)C(=O)NC2(C(=O)N[C@@](C)(CCC(=O)O)C(=O)N[C@@H](CC(N)=O)C(=O)NC3(C(N)=O)CCOCC3)CCOCC2)NC(=O)[C@H](CCC(N)=O)NC(=O)[C@H](Cc2c[nH]c3ccccc23)NC(=O)[C@H]([C@@H](C)O)NC(=O)[C@H](CCC(N)=O)NC1=O [Compound 37, Ac-[(D)Arg]-[Abu]-Q-T-W-Q-[Cys]-Phe[4-(2-aminoethoxy)]-[2-Nal]-[THP]-[aMeGlu]-N-[THP]-NH2]	11 nM
CC(=O)NCCCC[C@H](NC(=O)[C@](C)(CCCCN)NC(=O)[C@H](Cc1ccc2ccccc2c1)NC(=O)[C@H](Cc1ccc(OCCN)cc1)NC(=O)[C@]1(C)CSSC[C@H](NC(C)=O)C(=O)N[C@@H](CC(N)=O)C(=O)N[C@@H]([C@@H](C)O)C(=O)N[C@@H](Cc2c[nH]c3c(C)cccc23)C(=O)N[C@@H](CCC(N)=O)C(=O)N1)C(=O)N[C@@H](CC(N)=O)C(=O)NC1(C(N)=O)CCOCC1 [Compound 120, Ac-[Cys]-N-T-[W(7-Me)]-Q-[aMeCys]-Phe[4-(2-aminoethoxy)]-[2-Nal]-[a-MeLys]-[Lys(Ac)]-N-[THP]-NH2]	4.9 nM
CCC(=O)N[C@H](CCCNC(=N)N)C(=O)N[C@@H]1C(=O)N[C@@H](CCC(N)=O)C(=O)N[C@@H]([C@@H](C)O)C(=O)N[C@@H](Cc2c[nH]c3ccccc23)C(=O)N[C@@H](CCC(N)=O)C(=O)N[C@H](C(=O)N[C@@H](Cc2ccc(OCCN)cc2)C(=O)N[C@@H](Cc2ccc3ccccc3c2)C(=O)NC2(C(=O)N[C@@H](CCCCNC(=O)C(C)(C)C)C(=O)N[C@@H](CC(N)=O)C(=O)NC3(C(N)=O)CCOCC3)CCOCC2)C(C)(C)SSC1(C)C [Compound 7, [Propionic_acid]-[(D)Arg]-[Pen]-Q-T-W-Q-[Pen]-Phe[4-(2-aminoethoxy)]-[2-Nal]-[THP]-[Lys(COtBu)]-N-[THP]-NH2]	8.6 nM
CC(=O)N[C@H](CCCNC(=N)N)C(=O)N[C@H]1CCSC[C@@H](C(=O)N[C@@H](Cc2ccc(OCCN)cc2)C(=O)N[C@@H](Cc2ccc3ccccc3c2)C(=O)NC2(C(=O)NC(C)(C)C(=O)N[C@@H](CC(N)=O)C(=O)N[C@@H](Cc3ccccc3)C(N)=O)CCOCC2)NC(=O)[C@H](CCC(N)=O)NC(=O)[C@H](Cc2c[nH]c3ccccc23)NC(=O)[C@H]([C@@H](C)O)NC(=O)[C@H](CCC(N)=O)NC1=O [Compound 49, Ac-[(D)Arg]-[Abu]-Q-T-W-Q-[Cys]-Phe[4-(2-aminoethoxy)]-[2-Nal]-[THP]-[Aib]-N-F-NH2] (Ac-[dR][Abu(4-yl)]QTWQC[AEF][2Nal][Thp][Aib]NF-NH2; thioether 2-7)	18 nM
CC(=O)NCCCC[C@@H]1NC(=O)[C@H](Cc2c[nH]c3c(C)cccc23)NC(=O)[C@H]([C@@H](C)O)NC(=O)[C@H](CC(N)=O)NC(=O)[C@@H](NC(C)=O)C(C)(C)SSC(C)(C)[C@@H](C(=O)N[C@@H](Cc2ccc(OCCN)cc2)C(=O)N[C@@H](Cc2ccc3ccccc3c2)C(=O)N[C@@](C)(CCCCN)C(=O)N[C@@H](CCCCNC(C)=O)C(=O)N[C@@H](CC(N)=O)C(=O)N[C@@](C)(Cc2ccccc2)C(=O)N[C@@H](Cc2cccnc2)C(N)=O)NC1=O [Compound 116, Ac-[Pen]-N-T-[W(7-Me)]-[Lys(Ac)]-[Pen]-Phe[4-(2-aminoethoxy)]-[2-Nal]-[a-MeLys]-[Lys(Ac)]-N-[a-MePhe]-[3Pal]-NH2]	20 nM
CC(=O)NCCCC[C@@H]1NC(=O)[C@H](Cc2c[nH]c3ccccc23)NC(=O)[C@H]([C@@H](C)O)NC(=O)[C@H](CC(N)=O)NC(=O)[C@@H](NC(=O)[C@@H](CCCNC(=N)N)NC(C)=O)C(C)(C)SSC(C)(C)[C@@H](C(=O)N[C@@H](Cc2ccc(OCCN)cc2)C(=O)N[C@@H](Cc2ccc3ccccc3c2)C(=O)NC2(C(=O)N[C@@H](CCC(=O)O)C(=O)N[C@@H](CC(N)=O)C(=O)N[C@@](C)(Cc3ccccc3)C(N)=O)CCCC2)NC1=O [Compound 102, Ac-[(D)Arg]-[Pen]-N-T-W-[Lys(Ac)]-[Pen]-Phe[4-(2-aminoethoxy)]-[2-Nal]-[Acvc]-E-N-[a-MePhe]-NH2] (Ac-[dR][Pen]NTWK(Ac)[Pen][AEF][2Nal][Ac5c]EN[αMeF]-NH2; disulfide 2-7)	8.4 nM
CC(=O)N[C@H](CCCNC(=N)N)C(=O)N[C@H]1CCSC[C@@H](C(=O)N[C@@H](Cc2ccc(OCCN)cc2)C(=O)N[C@@H](Cc2ccc3ccccc3c2)C(=O)NC2(C(=O)N[C@@](C)(CCC(=O)O)C(=O)N[C@@H](CC(N)=O)C(=O)N[C@@H](Cc3ccc4ccccc4c3)C(N)=O)CCOCC2)NC(=O)[C@H](CCC(N)=O)NC(=O)[C@H](Cc2c[nH]c3ccccc23)NC(=O)[C@H]([C@@H](C)O)NC(=O)[C@H](CCC(N)=O)NC1=O [Compound 35, Ac-[(D)Arg]-[Abu]-Q-T-W-Q-[Cys]-Phe[4-(2-aminoethoxy)]-[2-Nal]-[THP]-[aMeGlu]-N-[2-Nal]-NH2]	25 nM
CCCCC(=O)N[C@H](CCCNC(=N)N)C(=O)N[C@@H]1C(=O)N[C@@H](CCC(N)=O)C(=O)N[C@@H]([C@@H](C)O)C(=O)N[C@@H](Cc2c[nH]c3ccccc23)C(=O)N[C@@H](CCC(N)=O)C(=O)N[C@H](C(=O)N[C@@H](Cc2ccc(OCCN)cc2)C(=O)N[C@@H](Cc2ccc3ccccc3c2)C(=O)NC2(C(=O)N[C@@H](CCC(=O)O)C(=O)N[C@@H](CC(N)=O)C(=O)NC3(C(N)=O)CCOCC3)CCOCC2)C(C)(C)SSC1(C)C [Compound 9, [Pentanoic acid]-[(D)Arg]-[Pen]-Q-T-W-Q-[Pen]-Phe[4-(2-aminoethoxy)]-[2-Nal]-[THP]-E-N-[THP]-NH2] (Pentanoyl-[dR][Pen]QTWQ[Pen][AEF][2Nal][Thp]EN[Thp]-NH2; disulfide 2-7)	29 nM
CCC(=O)N[C@H](CCCNC(=N)N)C(=O)N[C@@H]1C(=O)N[C@@H](CCC(N)=O)C(=O)N[C@@H]([C@@H](C)O)C(=O)N[C@@H](Cc2c[nH]c3ccccc23)C(=O)N[C@@H](CCC(N)=O)C(=O)N[C@H](C(=O)N[C@@H](Cc2ccc(OCCN)cc2)C(=O)N[C@H](C(=O)NC2(C(=O)N[C@@H](CCC(=O)O)C(=O)N[C@@H](CC(N)=O)C(=O)NC3(C(N)=O)CCOCC3)CCOCC2)[C@H](C)c2ccc3ccccc3c2)C(C)(C)SSC1(C)C [Compound 307, EtCO-r-Pen-Q-T-W-Q-Pen-AEF-bMe2Nal(2S,3R)-THP-E-N-THP---CONH2] (Propionyl-[dR][Pen]QTWQ[Pen][AEF][X3][Thp]EN[Thp]-NH2; disulfide 2-7)	52 nM
CCCCCC(=O)NCCCC[C@H](NC(=O)C1(NC(=O)[C@H](Cc2ccc3ccccc3c2)NC(=O)[C@H](Cc2ccc(OCCN)cc2)NC(=O)[C@H]2NC(=O)[C@H](CCC(N)=O)NC(=O)[C@H](Cc3c[nH]c4ccccc34)NC(=O)[C@H]([C@@H](C)O)NC(=O)[C@H](CCC(N)=O)NC(=O)[C@@H](NC(=O)[C@@H](CCCNC(=N)N)NC(C)=O)C(C)(C)SSC2(C)C)CCOCC1)C(=O)N[C@@H](CC(N)=O)C(=O)N[C@@H](Cc1ccccc1)C(N)=O [Compound 59, Ac-[(D)Arg]-[Pen]-Q-T-W-Q-[Pen]-Phe[4-(2-aminoethoxy)]-[2-Nal]-[THP]-[Lys(COPent)]-N-F-NH2] (Ac-[dR][Pen]QTWQ[Pen][AEF][2Nal][Thp]K(Hexanoyl)NF-NH2; disulfide 2-7)	67 nM
CC(=O)N[C@H](CCCNC(=N)N)C(=O)N[C@@H]1C(=O)N[C@@H](CCC(N)=O)C(=O)N[C@@H]([C@@H](C)O)C(=O)N[C@@H](Cc2c[nH]c3ccccc23)C(=O)N[C@@H](CCC(N)=O)C(=O)N[C@H](C(=O)N[C@@H](Cc2ccc(OCCN)cc2)C(=O)N[C@@H](Cc2ccc3ccccc3c2)C(=O)NC2(C(=O)N[C@@H](CCCCNC(=O)C3CC3)C(=O)N[C@@H](CC(N)=O)C(=O)N[C@@H](Cc3ccccc3)C(N)=O)CCOCC2)C(C)(C)SSC1(C)C [Compound 55, Ac-[(D)Arg]-[Pen]-Q-T-W-Q-[Pen]-Phe[4-(2-aminoethoxy)]-[2-Nal]-[THP]-[Lys(COcPr)]-N-F-NH2] (Ac-[dR][Pen]QTWQ[Pen][AEF][2Nal][Thp]K(Cyclopropanecarbonyl)NF-NH2; disulfide 2-7)	25 nM
CC(=O)NCCCC[C@H](NC(=O)C1(NC(=O)[C@H](Cc2ccc3ccccc3c2)NC(=O)[C@H](Cc2ccc(OCCN)cc2)NC(=O)[C@H]2NC(=O)[C@H](CCC(N)=O)NC(=O)[C@H](Cc3c[nH]c4ccccc34)NC(=O)[C@H]([C@@H](C)O)NC(=O)[C@H](CCC(N)=O)NC(=O)[C@@H](NC(=O)[C@@H](CCCNC(=N)N)NC(C)=O)C(C)(C)SSC2(C)C)CCOCC1)C(=O)N[C@@H](CC(N)=O)C(=O)NC1(C(N)=O)CCOCC1 [Compound 56, Ac-[(D)Arg]-[Pen]-Q-T-W-Q-[Pen]-Phe[4-(2-aminoethoxy)]-[2-Nal]-[THP]-[Lys(Ac)]-N-[THP]-NH2]	4.9 nM
COc1ccc(C[C@H](NC(=O)[C@@H]2CSCC[C@H](NC(=O)[C@@H](CCCNC(=N)N)NC(C)=O)C(=O)N[C@@H](CCC(N)=O)C(=O)N[C@@H]([C@@H](C)O)C(=O)N[C@@H](Cc3c[nH]c4ccccc34)C(=O)N[C@@H](CCC(N)=O)C(=O)N2)C(=O)N[C@@H](Cc2ccc3ccccc3c2)C(=O)NC2(C(=O)N[C@@](C)(CCC(=O)O)C(=O)N[C@@H](CC(N)=O)C(=O)N[C@@](C)(Cc3ccccc3)C(N)=O)CCOCC2)cc1OC [Compound 41, Ac-[(D)Arg]-[Abu]-Q-T-W-Q-[Cys]-[Phe(3,4-diOMe)]-[2-Nal]-[THP]-[aMeGlu]-N-[a-MePhe]-NH2] (Ac-[dR][Abu(4-yl)]QTWQC[Phe(3,4-(OMe)2)][2Nal][Thp][αMeE]N[αMeF]-NH2; thioether 2-7)	2500 nM
